Laboratory results reported in patent US7622448B2, “Compositions suitable for topical application to the skin” (L'Oreal, priority 2003, dated 2009).

Tested on: isolated stratum corneum
Assay: Desquamating effect: counting corneocytes released from isolated stratum corneum
Conditions: compound 2% by weight in 0.1% Triton X100 PBS buffer pH 7.4, 37° C., 24 hours; for Average number of corneocytes released, 1st skin sample: control 1; for Average number of corneocytes released, 2nd skin sample: control 4
Experimental: The test consists in counting the corneocytes released after incubation of batches of isolated stratum corneum in the presence of three test compounds, corresponding to compounds F, G and K of Table 1.
Compounds F, G and K were each dissolved to 2% by weight in a 0.1% Triton X100 PBS buffer at pH 7.4.
Two different samples of stratum corneum isolated by trypsin/heat from plastic surgeries were used. SCI discs 4 mm in diameter were cut out using a punch and placed in the bottom of a 96-well dish. 50 μl of buffer containing the test compound were added to each well. Controls without compound were prepared. The tests were repeated three times. The incubation was performed at 37° C. with stirring for 24 hours. 10 μl were then taken up and placed in a Mallassez cell. The freed corneocytes were counted by microscope.

| Structure (SMILES) | Average number of corneocytes released, 1st skin sample | Average number of corneocytes released, 2nd skin sample |
| --- | --- | --- |
| CNC(=O)C(Cc1ccccc1)(C(=O)NC)[C@@H]1OC[C@@H](O)[C@H](O)[C@H]1O [G] | 13 | 12 |
| CNC(=O)C(Cc1ccccc1)(C(=O)NC)[C@@H]1O[C@H](CO)[C@@H](O)[C@H](O)[C@H]1O [K] | 7 | 5 |
| CNC(=O)C(Cc1ccccc1)(C(=O)NC)[C@@H]1O[C@H](C)[C@H](O)[C@H](O)[C@H]1O [Compound F, 2-benzyl-N,N′-dimethyl-2-(3,4,5-trihydroxy-6-methyltetrahydropyran-2-yl)malonamide] | 5 | 12 |
